According to PubChem BioAssay (NCI):
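These data come from cells grown in 96-well plates and exposed to compound for 48 hours at five concentrations. Abbreviation: GI50, concentration required for 50% inhibition of growth. TGI is the concentration that stops growth completely.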

Columns and labels:
Assay in all cases: inhibition of tumour cell growth, NCI panel, 48 h
[1] = tested on: UACC-62 melanoma
[2] = tested on: NCI-H226 lung
[3] = tested on: UACC-257 melanoma
[4] = tested on: OVCAR-3 ovarian
[5] = tested on: SF-268 CNS
[6] = tested on: HS 578T breast
[7] = tested on: OVCAR-8 ovarian
[8] = tested on: MALME-3M melanoma
[9] = tested on: RXF 393 renal
[10] = tested on: HT29 colon
[11] = tested on: MCF7 breast
[12] = tested on: NCI/ADR-RES ovarian
[13] = tested on: SK-MEL-5 melanoma
[14] = tested on: T-47D breast
[15] = tested on: HCT-116 colon
[16] = tested on: HCT-15 colon
[17] = tested on: OVCAR-4 ovarian
[18] = tested on: SNB-19 CNS
[19] = tested on: SR leukemia
[20] = tested on: IGROV1 ovarian
[21] = tested on: KM12 colon
[22] = tested on: NCI-H522 lung
[23] = tested on: A549 NSCLC
[24] = tested on: OVCAR-5 ovarian
[25] = tested on: RPMI-8226 leukemia
[26] = tested on: EKVX NSCLC
[27] = tested on: SF-539 CNS
[28] = tested on: TK-10 renal
[29] = tested on: HCC-2998 colon
[30] = tested on: UO-31 renal
[31] = tested on: MDA-N
[32] = tested on: MOLT-4 leukemia
[33] = tested on: CCRF-CEM leukemia
[34] = tested on: SW-620 colon
[35] = tested on: SK-MEL-28 melanoma
[36] = tested on: K-562 leukemia
[37] = tested on: LOX IMVI melanoma
[38] = tested on: SK-OV-3 ovarian
[39] = tested on: M14 melanoma
[40] = tested on: COLO 205 colon
[41] = tested on: HL-60(TB) leukemia
[42] = tested on: U251 CNS
[43] = tested on: MDA-MB-231 breast
[44] = tested on: BT-549 breast
[45] = tested on: HOP-92 NSCLC
[46] = tested on: SF-295 CNS
[47] = tested on: 786-0 renal
[48] = tested on: A498 renal
[49] = tested on: ACHN renal
[50] = tested on: SK-MEL-2 melanoma
[51] = tested on: SNB-75 CNS
[52] = tested on: CAKI-1 renal
[53] = tested on: SN12C renal
[54] = tested on: NCI-H23 lung
[55] = tested on: PC-3 prostate
[56] = tested on: HOP-62 NSCLC
[57] = tested on: NCI-H460 lung
[58] = tested on: DU-145 prostate
[59] = tested on: MDA-MB-435

**Q.** What does the source list for `O=NNc1ccc(S(=O)c2ccccc2)cn1` (stereo not given)?
**A.** TGI [1]: > 100 µM; TGI [2]: > 100 µM; TGI [3]: > 100 µM; TGI [4]: > 100 µM; TGI [5]: > 100 µM; TGI [6]: > 100 µM; TGI [7]: > 100 µM; TGI [8]: > 100 µM; TGI [9]: > 93.7 µM; TGI [10]: > 100 µM; TGI [11]: > 100 µM; TGI [12]: > 100 µM; TGI [13]: > 100 µM; TGI [14]: > 100 µM; TGI [15]: > 100 µM; TGI [16]: > 100 µM; TGI [17]: > 100 µM; TGI [18]: > 100 µM; TGI [19]: > 100 µM; TGI [20]: > 100 µM; TGI [21]: > 100 µM; TGI [22]: > 100 µM; TGI [23]: > 100 µM; TGI [24]: > 100 µM; GI50 [25]: > 100 µM; TGI [25]: > 100 µM; TGI [26]: > 100 µM; TGI [27]: > 100 µM; TGI [28]: > 100 µM; GI50 [29]: > 100 µM; TGI [29]: > 100 µM; TGI [30]: > 100 µM; TGI [31]: > 100 µM; TGI [32]: > 100 µM; TGI [33]: > 100 µM; TGI [34]: > 100 µM; TGI [35]: > 100 µM; TGI [36]: > 100 µM; GI50 [37]: > 100 µM; TGI [37]: > 100 µM; TGI [38]: > 100 µM; TGI [39]: > 100 µM; TGI [40]: > 100 µM; TGI [41]: > 100 µM; TGI [42]: > 100 µM; TGI [43]: > 100 µM; TGI [44]: > 100 µM; GI50 [45]: 12.2 µM; TGI [45]: > 100 µM; TGI [46]: > 100 µM; TGI [47]: > 100 µM; TGI [48]: > 100 µM; TGI [49]: > 100 µM; GI50 [50]: > 100 µM; TGI [50]: > 100 µM; TGI [51]: > 100 µM; TGI [52]: > 100 µM; TGI [53]: > 100 µM; TGI [54]: > 100 µM; TGI [55]: > 100 µM; TGI [56]: > 100 µM; TGI [57]: > 100 µM; TGI [58]: > 100 µM; GI50 [59]: > 100 µM; TGI [59]: > 100 µM
